System: promoter of the gene for collagenase 1
Assay: Inhibition of PMA-induced activity of the collagenase 1 promoter (CAT reporter, CAT-Elisa) in transfected HeLa cells
Type: cell-based
Details: conclusion in words from the Table, PMA induction
Procedure: The activity of a lycopene-rich tomato extract (LycOMato® marketed by Metaphar) was studied on HeLa cells transfected with an expression vector encoding a portion of the promoter of collagenase cloned upstream of the gene for chloramphenicol acetyltransferase (CAT).
The study made it possible to evaluate the effectiveness of a product in inhibiting the induction of the transcription of the gene for collagenase by phorbol 12-myristate 13-acetate (PMA).
The test was carried out on HeLa cells (ATCC CCL2), into which had been introduced the promoter of the gene for collagenase 1 (3.8 kB) cloned upstream of the gene for chloramphenicol acetyltransferase (CAT).
The cells were exposed to PMA at a concentration of 10 nM for 24 hours.
Before administration of PMA, the cells were contacted for 2 hours with lycopene (LycOMato® marketed by Metaphar) at concentrations varying from 10^−7% to 10^−4%, representing lycopene concentrations ranging from 6×10^−9% to 6×10^−6%.
Assaying of the CAT was carried out using a “CAT-Elisa” kit marketed by Boehringer, according to the supplier's instructions.
A “base level” for the expression of the CAT was measured in cells which had neither received PMA nor were treated with the test product.
The results of the test, reported in the following Table, are expressed with respect to the base level (100%) as percentage of inhibition of the expression of the CAT gene.

SMILES: CC(C)=CCC/C(C)=C/C=C/C(C)=C/C=C/C(C)=C/C=C/C=C(C)/C=C/C=C(C)/C=C/C=C(\C)CCC=C(C)C [lycopene]
- effect on the synthesis of collagenase 1 by inhibition of the activity of its promoter: inhibitory effect

Source: patent publication US6623769B1, “Administration of lycopene for combating skin/mucous membrane damage” (Societe L'Oreal S.A., priority 1999, dated 2003)
